Measured values as given in BigSolDB 2.1.

Conditions: in water

Row | solubility (mole fraction) (323.15 K) | solubility (mole fraction) (333.15 K) | solubility (mole fraction) (343.15 K) | SMILES | solubility (mole fraction) (353.15 K) | solubility (mole fraction) (363.15 K) | solubility (mole fraction) (373.15 K)
1 | 0.00072 | 0.00087 | 0.00099 | CCCCCC1CCC(=O)O1 (configuration not stated) | 0.00109 | 0.00118 | 0.00128
2 |  |  |  | O=Cc1ccccc1 | 0.00236 | 0.00261 | 0.0036
3 |  | 0.0051 | 0.0055 | OCCc1ccccc1 | 0.0056 | 0.0065 | 0.0065
4 |  |  |  | O=Cc1ccco1 | 0.028 | 0.0314 | 0.034
